The source of these data is PMC9765437, “Antibiotic Acyldepsipeptides Stimulate the Streptomyces Clp-ATPase/ClpP Complex for Accelerated Proteolysis” (mBio, 2022).

For one series, the target named is T1, ClpC1 (Streptomyces hawaiiensis, UniProt A0A6G5RIJ6).
T1 construct: gene CEB94_23085
Conditions: 100 nM ATP, beta-casein, 30°C; ClpC1 alone and with ClpP1P2; unaffected by ADEP1.

The target of the next series is T2, ClpP1 (Streptomyces hawaiiensis, UniProt A0A6G5RDH7).
T2 construct: gene clpP; full-length unprocessed, untagged, expressed in E. coli SG1146a (clpP deletion), anion exchange; ADEP-induced processing between G24 and P25
T2 sequence (A0A6G5RDH7 1-219): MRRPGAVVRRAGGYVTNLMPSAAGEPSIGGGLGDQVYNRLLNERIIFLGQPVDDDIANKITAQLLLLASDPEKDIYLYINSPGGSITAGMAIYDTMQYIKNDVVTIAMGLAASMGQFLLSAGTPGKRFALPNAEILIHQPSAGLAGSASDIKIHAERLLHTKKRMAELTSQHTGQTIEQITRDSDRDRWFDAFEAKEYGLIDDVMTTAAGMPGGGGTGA
In words: fluorogenic peptidase assay. Conditions: with ADEP1 as activator; 100 μM substrate, pH 7.5, 30°C. In kind it is biochemical.

The target in another series is T3, ClpP1P2 (Streptomyces hawaiiensis, UniProt A0A6G5RDH7).
T3 construct: gene clpP; untagged full-length ClpP1 mixed with C-terminally His6-tagged full-length ClpP2, expressed in E. coli SG1146a; heterotetradecamer of two homoheptameric rings; with ATP-dependent Clp protease proteolytic subunit 2
In words: peptidase activation assay, Suc-LY-AMC. Conditions: activator binding via ClpP1; 10 μM ADEP1, 4 μM total ClpP, pH 7.5, 30°C. In kind it is biochemical.

Series [1] concerns the molecule itself. In words: native gel or EMSA; native PAGE without cross-linker, with ADEP1: ClpP1 and ClpP2 (10 μM each) with 60 μM or 25 μM ADEP1 (ClpP:ADEP1 1:3 or 1:1.25), 3 h at 30°C; immunoblot with anti-ClpP1 or anti-6His. In general terms: A gel shift assay detects complexes by their altered migration in electrophoresis.
Series [2] deals with the molecule itself. In words: SEC; Superdex 200 Increase 10/300 GL; 80 μM protein, DMSO (no ADEP1), 30 min at 30°C; buffer GF (50 mM HEPES-KOH, 150 mM KCl, 20 mM MgCl2, 10% glycerol, 1 mM DTT, pH 7.5). In general terms: In gel filtration, larger molecules generally elute earlier.

Starred links: 1 amine or outer side, 2 acyl side, 3 side chain; linkers in the order of their positions; H or OH if unused. Positions of bridges follow the written chain, without caps; N, C: chain ends. Non-standard residues stand in square brackets, D forms with d. Residues, ends and D or L forms follow the SMILES beside them. *: point of attachment. Octatrienoyl(2E,4E,6E) = C/C=C/C=C/C=C/C(=O)*; Pro(4R-Me) = C[C@H]1CN[C@H](C(=O)O)C1; AMC = Cc1cc(=O)oc2cc(N*)ccc12; Suc = O=C(CCC(=O)[*:2])[*:1]; NMeA = CN[C@@H](C)C(=O)O

T1 sequence (A0A6G5RIJ6 1-841): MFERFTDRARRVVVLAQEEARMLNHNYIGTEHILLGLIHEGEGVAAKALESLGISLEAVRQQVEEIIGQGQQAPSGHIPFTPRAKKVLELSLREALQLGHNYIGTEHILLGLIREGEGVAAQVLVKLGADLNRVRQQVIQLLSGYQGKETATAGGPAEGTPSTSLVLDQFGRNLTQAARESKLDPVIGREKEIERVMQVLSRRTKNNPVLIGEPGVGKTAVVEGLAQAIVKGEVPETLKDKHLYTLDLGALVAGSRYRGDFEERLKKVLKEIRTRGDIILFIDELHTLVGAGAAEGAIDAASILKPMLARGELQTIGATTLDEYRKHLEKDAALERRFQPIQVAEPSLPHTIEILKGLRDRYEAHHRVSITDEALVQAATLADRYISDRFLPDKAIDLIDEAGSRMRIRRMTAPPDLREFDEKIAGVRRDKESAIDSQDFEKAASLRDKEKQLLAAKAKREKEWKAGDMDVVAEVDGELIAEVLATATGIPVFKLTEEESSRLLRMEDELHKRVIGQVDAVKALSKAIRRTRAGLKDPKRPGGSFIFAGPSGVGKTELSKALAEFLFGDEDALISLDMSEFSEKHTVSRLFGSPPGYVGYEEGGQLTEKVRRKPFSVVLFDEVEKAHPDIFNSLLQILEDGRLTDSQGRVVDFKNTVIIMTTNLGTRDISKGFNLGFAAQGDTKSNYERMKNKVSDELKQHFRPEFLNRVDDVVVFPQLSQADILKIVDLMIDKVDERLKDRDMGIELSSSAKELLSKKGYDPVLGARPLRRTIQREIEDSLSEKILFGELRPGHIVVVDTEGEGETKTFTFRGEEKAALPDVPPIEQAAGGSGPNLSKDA

For `Nc1ncnc2c1ncn2[C@@H]1O[C@H](COP(=O)(O)OP(=O)(O)OP(=O)(O)O)[C@@H](O)[C@H]1O` [ATP], the “ADP-Glo ATP turnover assay” value at ClpC1 was “directly measured the turnover of ATP to ADP by ClpC1 in casein degradation assays”.

Turning to `Cc1cc(=O)oc2cc(NC(=O)[C@H](Cc3ccc(O)cc3)NC(=O)[C@H](CC(C)C)NC(=O)CCC(=O)O)ccc12` [Suc-LY-AMC] (Suc-Leu-Tyr-{AMC}), the fluorogenic peptidase assay entry at ClpP1 was “ADEP1 clearly induced the hydrolysis of Suc-LY-AMC by either ClpP1 alone”.

Take `C/C=C/C=C/C=C/C(=O)N[C@@H](Cc1ccccc1)C(=O)N[C@H]1COC(=O)[C@@H]2C[C@@H](C)CN2C(=O)[C@H](C)NC(=O)[C@H](C)N(C)C(=O)[C@@H]2CCCN2C1=O` [ADEP1] ({Octatrienoyl(2E,4E,6E)}-FSP[NMeA]A[Pro(4R-Me)]; ester 2-C): the “peptidase activation assay, Suc-LY-AMC” value on ClpP1P2 was “ADEP1 clearly induced the hydrolysis of Suc-LY-AMC by either ClpP1 alone or by the mixed complex”.

B1: ClpP2 of Streptomyces hawaiiensis NRRL 15010, C-terminally His6-tagged (enzyme, UniProt A0A5B9BIX9 1-235, looked up)
chain: MNQFPGSGIYDRMHAVQDMSASQGRYTGPQAESRYIIPRFVERTSQGIREYDPYAKLFEERVIFLGVQIDDASANDVMAQLLCLESMDPDRDISVYINSPGGSFTALTAIYDTMQYVKPDVQTVCMGQAASAAAVLLAAGTPGKRMALPNARVLIHQPYSETGRGQVSDLEIAANEILRMRSQLEDMLAKHSTTPVEKIREDIERDKILTAEDALSYGLIDQVISTRKMDNSSLR
notes: ClpP2, Clp protease proteolytic subunit 2 of Streptomyces hawaiiensis NRRL 15010, orf CEB94_14105 of GenBank CP021978.1; from the first start codon, unprocessed; also called ClpP2-His6; ClpP2His; source: E. coli SG1146a (ΔclpP), purified (Ni-NTA); also co-expressed with ClpP1 from pETDUET-1, in lysate; not shown: His6, C-terminal, kept
As for B1, in series [1], the stoichiometry N (in general, a count of units in the complex or per binding partner) was 7.

B2: ClpP2 of Streptomyces hawaiiensis NRRL 15010, untagged (enzyme, UniProt A0A5B9BIX9 1-235, looked up)
chain: B1 chain
notes: ClpP2 of Streptomyces hawaiiensis NRRL 15010, orf CEB94_14105 of GenBank CP021978.1; unprocessed; calculated mass of the heptamer 182.2 kDa; also called native ClpP2; source: E. coli SG1146a (ΔclpP), purified (anion-exchange chromatography)
Turning to B2, the “stoichiometry N” value in series [2] was determined as 7.
